# Laboratory results taken from publication PMC12566971, “Polyprenylated Acylphloroglucinols from Hypericum rochelii and Hypericum olympicum—Cytotoxic Effects on Non-Tumorigenic Cell Lines and Antibacterial Potential” (Pharmaceuticals, 2025).
# Where “and” joins values, the source holds several entries; their conditions need not be identical. Equal values may be shown once.
# Key:
# [1] = system: S. aureus; test: Time kill assay; type: cell-based, Staphylococcus aureus
# Experimental: A time kill assay was performed according to the modified protocol of Sendi and Ruppen, 2015 [137]. […] From these dilutions, 25 µL was seeded in brain heart infusion agar in a well of a 12-well plate. An untreated control was plated in the same way. Then, the bacterial suspension (treated and untreated) was placed in an incubator (MLW Kombinat, Leipzig, Germany) at 37 °C. Again, 25 µL of it was taken for seeding after 1, 2, 3, 4, 6, and 24 h, which equals a total of 7 time points. After 16–24 h of incubation, the colonies in the seeded plates from all dilutions were counted, and the number of colony-forming units (CFU) per mL, or in other words, bacteria per mL, was calculated.
# [2] = system: icaD gene in MRSA; test: Real-time PCR, relative gene expression; type: cell-based, Staphylococcus aureus; details: control = 1
# Experimental: (§1) The preparation of the samples for the RNA isolation was carried out as for the biofilm assay. RNA from the treated samples and the untreated positive MRSA control was isolated with the help of the Environmental DNA & RNA Purification Kit (E3572, EURx Ltd., Gdańsk, Poland). […] A total of 50 µL lysozyme (20 mg/mL) from chicken egg white (L6876, Merck Sigma-Aldrich) and 10 µL lysostaphin (L4402, Merck Sigma-Aldrich) from Staphylococcus staphylolyticus (200 U/mL) were added per sample. […] The samples, being bacterial, were subjected to cDNA synthesis using random hexamer primers and reverse transcriptase enzymes. The obtained cDNA samples were stored at −80 °C and used for real-time PCR.
# (§2) For normalization of the data, the rho gene was used as a housekeeping gene.
# [3] = system: icaA gene in MRSA; test: Real-time PCR, relative gene expression; type: cell-based, Staphylococcus aureus; details: control = 1
# Experimental: as §1, §2
# [4] = system: Streptococcus pyogenes; details: ref [4],[29]; cited from earlier work
# [5] = system: Methicillin-Resistant S. aureus (MRSA); test: MIC and MBC evaluation (broth microdilution, agar plate assay); type: cell-based, Staphylococcus aureus
# Experimental: The MIC and MBC assessment on the pathogenic bacteria and the candidate probiotic lactic acid bacteria was carried out by the broth microdilution assay (BMD) and the agar plate assay, respectively, as described in [4]. The metabolic (dehydrogenase) activity of the lactic acid bacteria was assessed as described in [4].
# P. aeruginosa PAO1 ATCC 15692 was purchased from the American Type Cell Culture Collection (ATCC, Manassas, VA, USA). S. mutans DSM 20523 was bought from the German Collection of Microorganisms and Cell Cultures (DSMZ GmbH, Braunschweig, Germany). All other bacteria and strains were purchased as described in [4].
# [6] = system: CCL-1 cells; test: Colony-forming unit assay; type: cell-based, murine; details: for Percentage of colonies, CCL-1: untreated control = 100%
# Experimental: (§3) The CFU was also performed according to ISO 10993-5 [56]. Briefly, the cell lines were seeded at a concentration like for the MTT assay in 6-well plates, treated with the chosen agents and left for a 48 h exposure. Then, the cells were trypsinized, and pre-calculated 20 to 100 µL from the cell suspension was added to a sterile Roswell Park Memorial Institute (RPMI) medium (RPMI-A, Capricorn Scientific), containing 20% of the respective cell culture medium for each cell line but with a final concentration of FBS and L-glutamine of 40–42% and 0.8–1.2 mM, respectively, 0.2% NaHCO3 (S6297, Merck Sigma-Aldrich, Saint Louis, MI, USA), and 0.8% methylcellulose (M0512, Merck Sigma-Aldrich) for viscosity. The viscous cell solution was vortexed for 10 s and dispensed in an equal number of cells per well in 6-well plates (1.2 mL per well) in triplicate for each concentration of treatment. HaCaT and HEK-293 were seeded at a concentration of 2500 cells per mL, CCL-1 and HEPG2—2000 cells per mL, and HGF—1000 cells per mL. The plates were incubated for 6 to 10 days, and when the colonies reached 20 to 50 cells per colony, 100 µL MTT salt solution was added to each well. After half an hour, the stained colonies were counted manually using a microscope.
# [7] = system: HEPG2; test: MTT assay for cytotoxicity; type: cell-based, human; details: for IC50: Homo sapiens, HepG2
# Experimental: The MTT assay was performed according to Annex C, ISO 10993-5 [56] as in [116]. The panel of non-tumorigenic cell lines consisted of one murine (CCL-1 fibroblasts, which are recommended as a standard for cytotoxicity evaluation in Annex C of ISO 10993-5 [56]) and four human cell lines—HaCaT (immortalized epidermal keratinocytes), HGF (gingival fibroblasts), HEK-293 (embryonic cells from kidney epithelium), and HEPG2 (hepatoblastoma). Although technically a cancer cell line, HEPG2 is non-tumorigenic and retains many hepatocyte-related features in its proteome and a high degree of morphological and functional differentiation, also being a stage one hepatoblastoma.
# CCL-1 was purchased from ATCC and HaCaT and HGF were bought from CLS Cell Lines Service (GmbH, Eppelheim, Germany). HEK-293 and HEPG2 were obtained from DSMZ. The cell culture medium for HaCaT and HEPG2 was Dulbecco’s Modified Eagle Medium (DMEM) with 4.5 g/L glucose (DMEM-HA). For HGF it was DMEM/F-12 (DMEM-12-A, a 1:1 mixture of DMEM and Ham’s F-12 medium). The cell medium for CCL-1 and HEK-293 was Eagle’s Minimum Essential Medium (MEM) (MEM-A). Ten percent heat-inactivated fetal bovine serum (FBS) was added to all media but to the one for the CCL-1 cells, to which 10% heat-inactivated horse serum was added. All media were supplemented with 2 mM L-glutamine and Penicillin/Streptomycin (Pen/Strep, 100×). The cell culture media, sera, and additives were from Capricorn Scientific (Düsseldorf, Germany).
# GraphPad Prism software version 9 (GraphPad Software Inc., San Diego, CA, USA) was used to calculate the IC50 values from the MTT assays as in [116], as well as the MTC values, and the ELISA standard curves. The MTC values are, according to ISO 10993-5, the maximum concentration at which at least 70% of the cells are viable (nonlin fit, range).
# [8] = system: HEK-293 cells; test: Colony-forming unit assay; type: cell-based, human; details: for Percentage of colonies, HEK-293: untreated control = 100%
# Experimental: as §3
smiles,measurement,setting,value
CC(C)=CCCC1(C)C(CC=C(C)C)CC2C(=O)C1(C(=O)C(C)C)C(=O)C(CC=C(C)C)=C2O (centres unmarked) [Olympiforin B],Bacteria remaining in time kill assay,"[1]; 1/2 × MBC, 24 h","302,000 CFU/mL"
same,Outcome of time kill assay,"[1]; MBC concentration, by 24 h",killed all bacteria
same,"Relative gene expression, icaD",[2]; 1/8 × MIC,0.41
same,"Relative gene expression, icaD",[2]; 1/16 × MIC,0.82
same,"Relative gene expression, icaD",[2]; 1/32 × MIC,0.95
same,"Relative gene expression, icaA",[3]; 1/8 × MIC,0.37
same,"Relative gene expression, icaA",[3]; 1/16 × MIC,0.53
same,"Relative gene expression, icaA",[3]; 1/32 × MIC,0.28
same,"MIC on bacteria, S. pyogenes",[4],4 µg/mL
same,MBC,"[5]; Staphylococcus aureus, MRSA",68 µg/mL and 121 µM
same,"MBC/MIC ratio, MRSA","[5]; bactericidal if ≤ 4, bacteriostatic if > 4",68
same,Colonies per well for CCL-1 cells,"[6]; 1/2 × IC50, 48 h exposure",167
same,"Percentage of colonies, CCL-1",[6]; 1/2 × IC50,106%
same,Colonies per well for CCL-1 cells,"[6]; 2 × IC50, 48 h exposure",61
same,"Percentage of colonies, CCL-1",[6]; 2 × IC50,39%
same,Colonies per well for CCL-1 cells,"[6]; IC50, 48 h exposure",62
same,"Percentage of colonies, CCL-1",[6]; IC50,40%
same,IC50,[7]; MTT assay,4.5 µg/mL
same,IC50,[7]; converted to µM,9.6 µM
same,"Maximum tolerated concentration (MTC), HEPG2","[7]; at least 70% of cells viable, ISO 10993-5",1.54 µg/mL
same,Colonies per well for HEK-293 cells,"[8]; 1/2 × IC50, 48 h exposure",102
same,"Percentage of colonies, HEK-293",[8]; 1/2 × IC50,97%
same,Colonies per well for HEK-293 cells,"[8]; 2 × IC50, 48 h exposure",80
same,"Percentage of colonies, HEK-293",[8]; 2 × IC50,77%
same,Colonies per well for HEK-293 cells,"[8]; IC50, 48 h exposure",99
same,"Percentage of colonies, HEK-293",[8]; IC50,95%
